These results are taken from US20140235616A1, “PYRAZOLOQUINOLINONE DERIVATIVES, PREPARATION THEREOF AND THERAPEUTIC USE THEREOF” (SANOFI, priority 2011, published 2014).

The structures appear in SMILES notation.

T1 sequence (P50579 whole entry): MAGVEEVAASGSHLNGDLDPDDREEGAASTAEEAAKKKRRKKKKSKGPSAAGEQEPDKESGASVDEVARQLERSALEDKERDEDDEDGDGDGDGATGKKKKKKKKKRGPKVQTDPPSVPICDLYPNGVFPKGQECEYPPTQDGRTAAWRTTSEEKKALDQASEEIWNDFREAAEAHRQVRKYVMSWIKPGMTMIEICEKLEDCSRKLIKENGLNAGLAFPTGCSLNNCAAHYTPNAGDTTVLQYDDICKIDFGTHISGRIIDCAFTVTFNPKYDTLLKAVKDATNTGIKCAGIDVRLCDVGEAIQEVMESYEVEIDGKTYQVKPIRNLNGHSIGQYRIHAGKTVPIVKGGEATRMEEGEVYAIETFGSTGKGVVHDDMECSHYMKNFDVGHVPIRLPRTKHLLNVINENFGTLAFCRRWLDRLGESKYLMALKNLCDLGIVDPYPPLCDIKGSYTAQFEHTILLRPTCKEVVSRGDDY

This experiment addresses T1, human MetAP2 (Homo sapiens, UniProt P50579).
T1 construct: made in house; host or cells: Sf9 insect cells (baculovirus)
The experiment in a line: MetAP2 enzymatic screening test (isolated enzyme, Met-Pro-Arg-pNa substrate, absorbance at 405 nm). Type of experiment: biochemical. The conditions noted are these: read-out: % inhibition hMETAP2 at 100 nM. The protocol:
The compounds according to the invention underwent biochemical studies in order to determine their capacity to inhibit the enzyme methionine-aminopeptidase2 (enzymatic test on isolated enzyme).
MetAP2 Enzymatic Screening Test
For the enzymatic test, human MetAP2 protein was obtained from a culture supernatant of insect cells (sf9) infected with MetAP2 recombinant baculovirus.
Before performing the experiment, dialysis of the MetAP2 supernatant is performed over 24 hours at 4° C. in a buffer (10 mM Hepes, 100 mM KCl, 10% glycerol, pH 7.4) in the presence of EDTA (1 mM) over the first 12 hours.
The dialysis supernatant is recovered and manganese, used as cofactor, is added to a final concentration of 300 μM.
The enzymatic test is a test in two steps.
Consequently, the second step consists in reacting the peptides cleaved in the preceding step with a second peptidase in order to release the chromophore.
`COC(=O)c1ccccc1-c1ccc2c3[nH]ncc3c(=O)n(CC(F)(F)F)c2c1` [Compound 156, methyl 2-[4-oxo-5-(2,2,2-trifluoroethyl)-4,5-dihydro-1H-pyrazolo[4,3-c]quinolin-7-yl]benzoate]: the inhibition at 0.1 µM worked out at 41%.
Consider `O=c1c2cn[nH]c2c2ccc(-c3cncnc3-c3ccccc3)cc2n1CC(F)(F)F` [Compound 160, 7-(4-phenylpyrimidin-5-yl)-5-(2,2,2-trifluoroethyl)-1,5-dihydro-4H-pyrazolo[4,3-c]quinolin-4-one], for which the inhibition at 0.1 µM turned out to be 40%.
Take `CCC(=O)Nc1ccc(-c2ccc3c4[nH]ncc4c(=O)n(CC(F)(F)F)c3c2)c(C)n1` [Compound 147, N-{6-methyl-5-[4-oxo-5-(2,2,2-trifluoroethyl)-4,5-dihydro-1H-pyrazolo[4,3-c]quinolin-7-yl]pyrid-2-yl}propionamide]: the inhibition at 0.1 µM turned out to be 42%.
As to `CCn1c(=O)c2cn[nH]c2c2ccc(-c3ccc(CNC(C)=O)cc3)cc21` [Compound 38, N-[4-(5-ethyl-4-oxo-4,5-dihydro-1H-pyrazolo[4,3-c]quinolin-7-yl)benzyl]acetamide], the inhibition at 0.1 µM came out at 60%.
Turning to `CCc1ncncc1-c1ccc2c3[nH]ncc3c(=O)n(CC(F)(F)F)c2c1` [Compound 143, 7-(4-ethylpyrimidin-5-yl)-5-(2,2,2-trifluoroethyl)-1,5-dihydro-4H-pyrazolo[4,3-c]quinolin-4-one], the inhibition at 0.1 µM came out at 43%.
For `O=c1c2cn[nH]c2c2ccc(-c3ccccc3CCO)cc2n1CC(F)(F)F` [Compound 131, 7-[2-(2-hydroxy-ethyl)phenyl]-5-(2,2,2-trifluoroethyl)-1,5-dihydro-4H-pyrazolo[4,3-c]quinolin-4-one], the inhibition at 0.1 µM was 46%.
To `O=c1c2cn[nH]c2c2ccc(-c3ccc(C(O)c4ccccc4)cn3)cc2n1CC(F)(F)F` (centres unmarked) [Compound 152, 7-[5-(hydroxyphenylmethyl)pyrid-2-yl]-5-(2,2,2-trifluoroethyl)-1,5-dihydro-4H-pyrazolo[4,3-c]quinolin-4-one] belongs 41%.
As for `CCn1c(=O)c2cn[nH]c2c2ccc(-c3ccc(C(=O)N4CCN(C)CC4)cc3)cc21` [Compound 21, 5-ethyl-7-[4-(4-methylpiperazine-1-carbonyl)phenyl]-1,5-dihydro-4H-pyrazolo[4,3-c]quinolin-4-one], the inhibition at 0.1 µM was 70%.
To `CCn1c(=O)c2cn[nH]c2c2ccc(-c3cc(OC)ccc3F)cc21` [Compound 28, 5-ethyl-7-(2-fluoro-5-methoxyphenyl)-1,5-dihydro-4H-pyrazolo[4,3-c]quinolin-4-one] belongs 67%; to `O=c1c2cn[nH]c2c2ccc(-c3ccc(F)cn3)cc2n1CC(F)(F)F` [Compound 165, 7-(5-fluoropyrid-2-yl)-5-(2,2,2-trifluoroethyl)-1,5-dihydro-4H-pyrazolo[4,3-c]quinolin-4-one], 37%; to `Cc1ccnc(-c2ccc3c4[nH]ncc4c(=O)n(CC(F)(F)F)c3c2)c1` [Compound 187, 7-(4-methylpyrid-2-yl)-5-(2,2,2-trifluoroethyl)-1,5-dihydro-4H-pyrazolo[4,3-c]quinolin-4-one], 40%.
On to `Nc1ncc(F)cc1-c1ccc2c3[nH]ncc3c(=O)n(CC(F)(F)F)c2c1` [Compound 132, 7-(2-amino-5-fluoropyrid-3-yl)-5-(2,2,2-trifluoroethyl)-1,5-dihydro-4H-pyrazolo[4,3-c]quinolin-4-one], for which the inhibition at 0.1 µM was 46%.
With `CCn1c(=O)c2cn[nH]c2c2ccc(-c3ccc(C(C)N(C)C)cc3)cc21` (centres unmarked) [Compound 15, 7-[4-(1-dimethylaminoethyl)phenyl]-5-ethyl-1,5-dihydro-4H-pyrazolo[4,3-c]quinolin-4-one], the inhibition at 0.1 µM stood at 74%.
Regarding `O=c1c2cn[nH]c2c2ccc(-c3ccccc3Cn3cncn3)cc2n1CC(F)(F)F` [Compound 159, 7-(2-[1,2,4]triazol-1-ylmethylphenyl)-5-(2,2,2-trifluoroethyl)-1,5-dihydro-4H-pyrazolo[4,3-c]quinolin-4-one], the inhibition at 0.1 µM is 40%.
